From patent publication US20260250290A1 (BRISTOL-MYERS SQUIBB COMPANY, priority 2023, published 2026)

Molecular target: T1, full length SGK1 (Homo sapiens, UniProt O00141)
T1 construct: 125 μM full length SGK1 (Life Technologies Part #PR7358A); purchased Life Technologies PR7358A
T1 sequence (O00141 1-431): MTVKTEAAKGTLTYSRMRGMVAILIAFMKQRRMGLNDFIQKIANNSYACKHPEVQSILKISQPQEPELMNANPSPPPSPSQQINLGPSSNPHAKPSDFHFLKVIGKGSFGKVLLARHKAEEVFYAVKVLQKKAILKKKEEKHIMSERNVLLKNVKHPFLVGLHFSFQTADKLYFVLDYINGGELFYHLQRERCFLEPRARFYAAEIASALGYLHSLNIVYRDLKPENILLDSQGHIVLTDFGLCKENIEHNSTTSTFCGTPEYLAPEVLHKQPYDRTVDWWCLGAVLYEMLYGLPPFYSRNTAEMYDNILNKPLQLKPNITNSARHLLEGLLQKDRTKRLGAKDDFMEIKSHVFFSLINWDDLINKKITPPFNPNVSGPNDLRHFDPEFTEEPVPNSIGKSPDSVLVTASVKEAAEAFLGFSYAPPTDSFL
Assay: SGK1 inhibition Assay A (Caliper LabChip electrophoretic separation of fluorescent peptide substrate and phosphorylated product)
Format: biochemical
Conditions: Assay A; 20 μM ATP, 40 min incubation; read-out: SGK1 IC50

IC50 [nM] | Structure (SMILES)
28 | COCC(=O)N1CC=C(c2cc(N3CCC[C@@H](NC(=O)c4sc(Cl)cc4OCCN4CCOCC4)C3)c3c(N)ncnn23)C1 [Example 259, (R)—N-(1-(4-amino-7-(1-(2-methoxyacetyl)-2,5-dihydro-1H-pyrrol-3-yl)pyrrolo[2,1-f][1,2,4]triazin-5-yl)piperidin-3-yl)-5-chloro-3-(2-morpholinoethoxy)thiophene-2-carboxamide]
48 | COC(C(=O)N1CC=C(c2cc(N3CCC[C@@H](NC(=O)c4sc(Cl)cc4OCCN4CCOCC4)C3)c3c(N)ncnn23)C1)C1CC1 (stereo partly drawn) [Example 260, N-((3R)-1-(4-amino-7-(1-(2-cyclopropyl-2-methoxyacetyl)-2,5-dihydro-1H-pyrrol-3-yl)pyrrolo[2,1-f] [1,2,4]triazin-5-yl)piperidin-3-yl)-5-chloro-3-(2-morpholinoethoxy)thiophene-2-carboxamide]
32 | CC1(C)CC1C(=O)N1CC=C(c2cc(N3CCC[C@@H](NC(=O)c4sc(Cl)cc4OCCN4CCOCC4)C3)c3c(N)ncnn23)C1 (stereo partly drawn) [Example 261, N-((3R)-1-(4-amino-7-(1-(2,2-dimethylcyclopropane-1-carbonyl)-2,5-dihydro-1H-pyrrol-3-yl)pyrrolo[2,1-f] [1,2,4]triazin-5-yl)piperidin-3-yl)-5-chloro-3-(2-morpholinocthoxy)thiophene-2-carboxamide]
12 | Nc1ncnn2c(C3=CCN(C(=O)C4(F)CC4)C3)cc(N3CCC[C@@H](NC(=O)c4sc(Cl)cc4OCCN4CCOCC4)C3)c12 [Example 263, (R)-N-(1-(4-amino-7-(1-(1-fluorocyclopropane-1-carbonyl)-2,5-dihydro-1H-pyrrol-3-yl)pyrrolo [2,1-f][1,2,4]triazin-5-yl)piperidin-3-yl)-5-chloro-3-(2-morpholinoethoxy)thiopbene-2-carboxamide]
12 | N#CC1(C(=O)N2CC=C(c3cc(N4CCC[C@@H](NC(=O)c5sc(Cl)cc5OCCN5CCOCC5)C4)c4c(N)ncnn34)C2)CC1 [Example 264, (R)-N-(1-(4-amino-7-(1-(1-cyanocyclopropane-1-carbonyl)-2,5-dihydro-1H-pyrrol-3-yl)pyrrolo[2,1-f][1,2,4]triazin-5-yl)piperidin-3-yl)-5-chloro-3-(2-morpholinoethoxy)thiophene-2-carboxamide]
18 | Nc1ncnn2c(C3=CCN(C(=O)C4CC45CC5)C3)cc(N3CCC[C@@H](NC(=O)c4sc(Cl)cc4OCCN4CCOCC4)C3)c12 (stereo partly drawn) [Example 265, N-((3R)-1-(4-amino-7-(1-(spiro[2.2]pentane-1-carbonyl)-2,5-dihydro-1H-pyrrol-3-yl)pyrrolo[2,1-f][1,2,4]triazin-5-yl)piperidin-3-yl)-5-chloro-3-(2-morpholinoethoxy)thiophene-2-carboxamide]
18 | CC1CC1C(=O)N1CC=C(c2cc(N3CCC[C@@H](NC(=O)c4sc(Cl)cc4OCCN4CCOCC4)C3)c3c(N)ncnn23)C1 (stereo partly drawn) [Example 266, N-((3R)-1-(4-amino-7-(1-(2-methylcyclopropane-1-carbonyl)-2,5-dihydro-1H-pyrrol-3-yl)pyrrolo[2,1-f][1,2,4]triazin-5-yl)piperidin-3-yl)-5-chloro-3-(2-morpholinoethoxy)thiopbene-2-carboxamide]
9 | Nc1ncnn2c(-c3ccnc(C(F)(F)F)c3)cc(N3CCC[C@@H](NC(=O)c4sc(Cl)cc4OCCN4CCOCC4)C3)c12 [Example 267, (R)—N-(1-(4-amino-7-(2-(trifluoromethyl)pyridin-4-yl)pyrrolo[2,1-f][1,2,4]triazin-5-yl)piperidin-3-yl)-5-chloro-3-(2-morpholinoethoxy)thiophene-2-carboxamide]
38 | CC(=O)N1CC=C(c2cc(N3CCC[C@@H](NC(=O)c4sc(C)cc4N4CCOCC4)C3)c3c(N)ncnn23)C1 [Example 268, (R)—N-(1-(7-(1-acetyl-2,5-dihydro-1H-pyrrol-3-yl)-4-aminopyrrolo[2,1-f][1,2,4]triazin-5-yl)piperidin-3-yl)-5-methyl-3-morpholinothiophene-2-carboxamide]
31 | CC(=O)N1CC=C(c2cc(N3CCC[C@@H](NC(=O)c4sc(C)cc4N4CCN(C)CC4)C3)c3c(N)ncnn23)C1 [Example 269, (R)—N-(1-(7-(1-acetyl-2,5-dihydro-1H-pyrrol-3-yl)-4-aminopyrrolo[2,1-f][1,2,4]triazin-5-yl)piperidin-3-yl)-5-methyl-3-(4-methylpiperazin-1-yl)thiophene-2-carboxamide]
49 | CC(=O)N1CC=C(c2cc(N3CCC[C@@H](NC(=O)c4cc(N5CCN(C)CC5)c(C)s4)C3)c3c(N)ncnn23)C1 [Example 270, (R)—N-(1-(7-(1-acetyl-2,5-dihydro-1H-pyrrol-3-yl)-4-aminopyrrolo[2,1-f][1,2,4]triazin-5-yl)piperidin-3-yl)-5-methyl-4-(4-methylpiperazin-1-yl)thiophene-2-carboxamide]
22 | CC(=O)N1CC=C(c2cc(N3CCC[C@@H](NC(=O)c4cc(N5CCOCC5)c(C)s4)C3)c3c(N)ncnn23)C1 [Example 271, (R)—N-(1-(7-(1-acetyl-2,5-dihydro-1H-pyrrol-3-yl)-4-aminopyrrolo[2,1-f][1,2,4]triazin-5-yl)piperidin-3-yl)-5-methyl-4-morpholinothiophene-2-carboxamide]
28 | CC(=O)N1CC=C(c2cc(N3CCC[C@@H](NC(=O)c4cc(N5CCOCC5)cs4)C3)c3c(N)ncnn23)C1 [Example 272, (R)—N-(1-(7-(1-acetyl-2,5-dihydro-1H-pyrrol-3-yl)-4-aminopyrrolo[2,1-f][1,2,4]triazin-5-yl)piperidin-3-yl)-4-morpholinothiophene-2-carboxamide]
5 | CN1CCN(CCOc2cc(Cl)sc2C(=O)N[C@@H]2CCCN(c3cc(C4=CCN(S(C)(=O)=O)C4)n4ncnc(N)c34)C2)CC1 [Example 273, (R)—N-(1-(4-amino-7-(1-(methylsulfonyl)-2,5-dihydro-1H-pyrrol-3-yl)pyrrolo[2,1-f][1,2,4]triazin-5-yl)piperidin-3-yl)-5-chloro-3-(2-(4-methylpiperazin-1-yl)ethoxy)thiophene-2-carboxamide]
916 | CS(=O)(=O)c1ccc(-c2cc(N3CCC[C@@H](NS(=O)(=O)c4ccccc4)C3)c3c(N)ncnn23)cc1 [Example 274, (R)—N-(1-(4-amino-7-(4-(methylsulfonyl)phenyl)pyrrolo[2,1-f][1,2,4]triazin-5-yl)piperidin-3-yl)benzenesulfonamide]
919 | CN(C)CCOc1cc(Cl)sc1C(=O)N[C@@H]1CCCN(c2cc(-c3cnn(C4CCOC4)c3)n3ncnc(N)c23)C1 (stereo partly drawn) [Example 275, N-((3R)-1-(4-amino-7-(1-(tetrahydrofuran-3-yl)-1H-pyrazol-4-yl)pyrrolo[2,1-f][1,2,4]triazin-5-yl)piperidin-3-yl)-5-chloro-3-(2-(dimethylamino)ethoxy)thiophene-2-carboxamide]
1 | CN(C)CCOc1cc(Cl)sc1C(=O)N[C@@H]1CCCN(c2cc(-c3ccc(C=O)cc3)n3ncnc(N)c23)C1 [Example 276, (R)—N-(1-(4-amino-7-(4-formylphenyl)pyrrolo[2,1-f][1,2,4]triazin-5-yl)piperidin-3-yl)-5-chloro-3-(2-(dimethylamino)ethoxy)thiophene-2-carboxamide]
10 | Cc1cc(-c2cc(N3CCC[C@@H](NC(=O)c4sc(Cl)cc4OCCN(C)C)C3)c3c(N)ncnn23)cc(C(F)F)n1 [Example 277, (R)-N-(1-(4-amino-7-(2-(difluoromethyl)-6-methylpyridin-4-yl)pyrrolo[2,1-f][1,2,4]triazin-5-yl)piperidin-3-yl)-5-chloro-3-(2-(dimethylamino)ethoxy) thiophene-2-carboxamide]
1 | CN(C)CCOc1cc(Cl)sc1C(=O)N[C@@H]1CCCN(c2cc(-c3ccc(C#N)nc3)n3ncnc(N)c23)C1 [Example 278, (R)-N-(1-(4-amino-7-(6-cyanopyridin-3-yl)pyrrolo[2,1-f][1,2,4]triazin-5-yl)piperidin-3-yl)-5-chloro-3-(2-(dimethylamino)ethoxy) thiophene-2-carboxamide]
3 | CN(C)CCOc1cc(Cl)sc1C(=O)N[C@@H]1CCCN(c2cc(-c3ccc(C#N)c(F)c3)n3ncnc(N)c23)C1 [Example 279, (R)-N-(1-(4-amino-7-(4-cyano-3-fluorophenyl)pyrrolo[2,1-f][1,2,4]triazin-5-yl)piperidin-3-yl)-5-chloro-3-(2-(dimethylamino)ethoxy) thiophene-2-carboxamide]
2 | CN(C)CCOc1cc(Cl)sc1C(=O)N[C@@H]1CCCN(c2cc(-c3ccnc(C#N)c3)n3ncnc(N)c23)C1 [Example 280, (R)-N-(1-(4-amino-7-(2-cyanopyridin-4-yl)pyrrolo[2,1-f][1,2,4]triazin-5-yl)piperidin-3-yl)-5-chloro-3-(2-(dimethylamino)ethoxy) thiophene-2-carboxamide]
4 | CN(C)CCOc1cc(Cl)sc1C(=O)N[C@@H]1CCCN(c2cc(-c3ccc(=O)n(CC(F)F)c3)n3ncnc(N)c23)C1 [Example 281, (R)-N-(1-(4-amino-7-(1-(2,2-difluoroethyl)-6-oxo-1,6-dihydropyridin-3-yl)pyrrolo[2,1-f][1,2,4]triazin-5-yl)piperidin-3-yl)-5-chloro-3-(2-(dimethylamino)ethoxy) thiophene-2-carboxamide]
6 | CN(C)CCOc1cc(Cl)sc1C(=O)N[C@@H]1CCCN(c2cc(-c3cccc(C=O)c3)n3ncnc(N)c23)C1 [Example 283, (R)-N-(1-(4-amino-7-(3-formylphenyl)pyrrolo[2,1-f][1,2,4]triazin-5-yl)piperidin-3-yl)-5-chloro-3-(2-(dimethylamino)ethoxy) thiophene-2-carboxamide]
